Biological target: hPAD4 enzyme (Homo sapiens, UniProt Q9UM07)
Test: RFMS Assay 1 (rapid-fire mass spectrum PAD4 inhibition assay, BAEE substrate)
Type: biochemical
Conditions: 5 nM hPAD4 enzyme, 250 μM BAEE, 30 mins compound and enzyme preincubation at 37° C., 90 min enzyme/substrate reaction
Experimental: Compounds were solubilized in 100% DMSO to achieve a 10 mM compound concentration. Compound stock solutions were stored at RT. A series of dilutions were prepared in DMSO and mixed 8 times with 20 μL mixing volume. Final top concentration of compound in the assay is 50 μM. Final assay conditions were as follows: • Reaction volume: 26 μl • Assay buffer: 25 mM hepes, pH 7.5, 5 mM NaCl, 1 mM DTT, 0.2 mg/ml BSA, 0.01% CHAPS, 50 μM Calcium, and 5 μM TPEN • Final concentrations: 5 nM hPAD4 enzyme, 250 μM BAEE, and 0.5% DMSO • Total incubation time: 30 mins compound and enzyme preincubation at 37° C., 90 min enzyme/substrate reaction, 30 min reaction with phenyl glyoxal at 37° C. • Stop solution: 40 μl 5% TCA in ACN
0.13 μL of compound solution was added to 13 μL of 10 nM PAD4 in assay buffer. After 30 min 13 μl of 500 μM of BAEE was added in 25 mM hepes, pH 7.5, 5 mM NaCl, 1 mM DTT, 0.2 mg/ml BSA, 0.01% CHAPS, 50 µM Calcium, […] was added and the reaction incubated for 90 min at 37° C. The enzymatic reaction was quenched by addition of 15 μl of 6.1N TCA, 100% Final Concentration is 20%, 35 μl of 8.5 mM phenyl glyoxal (final concentration 4 mM) is then added and the reaction is incubated for 30 min at 37° C.
After 30 minutes the plates are spun down to remove all precipitate. The enzyme reaction was quenched with an equal volume of methanol containing internal standard (modified citrulline). Samples were loaded onto the Rapid Fire RF300 system (Agilent) wherein they were first sipped for 1000 ms and then directly loaded to a C18 separations cartridge using a mixture of acetonitrile containing 0.01% formic acid for 3000 ms desalting. The flow rate of the mobile phase was 1.5 ml/min. Once the samples were eluted from the cartridge, a mobile phase of acetonitrile containing 0.01% formic acid was used to move the samples into the mass spectrometer for 4000 ms at a flow rate of 1.25 ml/min/Sciex AP15500 triple quadrupole mass spectrometer (Applied Biosystems) equipped with ESI was used to analyze the peptidyl citrulline and internal standard ions.
MRM transition of product and internal standard were monitored at m/z 424.5 to 350.4 and m/z 293 to 247 respectively. The dwell time for each transition was set at 200 ms, and the ESI voltage was used at 5500 with a source temperature of 400° C. Extracted ion peaks for each transition were integrated using the Rapid Fire Integrator software. Peak area of analyte was normalized with internal standard.).

hPAD4 enzyme, sequence (Q9UM07 whole entry): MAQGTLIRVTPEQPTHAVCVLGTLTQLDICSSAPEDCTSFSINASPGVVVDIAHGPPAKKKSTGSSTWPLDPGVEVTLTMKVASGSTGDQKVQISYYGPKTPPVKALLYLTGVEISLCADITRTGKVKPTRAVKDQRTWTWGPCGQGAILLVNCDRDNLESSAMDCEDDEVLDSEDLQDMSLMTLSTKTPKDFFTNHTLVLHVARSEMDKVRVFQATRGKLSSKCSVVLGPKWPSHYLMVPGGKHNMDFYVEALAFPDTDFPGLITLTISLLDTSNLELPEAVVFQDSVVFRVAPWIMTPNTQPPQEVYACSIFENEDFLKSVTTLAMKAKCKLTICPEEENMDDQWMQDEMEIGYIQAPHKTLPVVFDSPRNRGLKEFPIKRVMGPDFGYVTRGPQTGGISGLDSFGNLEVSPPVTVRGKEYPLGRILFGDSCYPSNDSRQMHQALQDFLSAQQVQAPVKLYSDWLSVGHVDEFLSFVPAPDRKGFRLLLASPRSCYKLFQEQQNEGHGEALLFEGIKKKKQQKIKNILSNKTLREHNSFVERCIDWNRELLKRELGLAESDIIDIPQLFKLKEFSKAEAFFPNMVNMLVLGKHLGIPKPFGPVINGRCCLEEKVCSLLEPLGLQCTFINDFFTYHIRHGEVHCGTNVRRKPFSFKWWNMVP

| Compound | IC50 [nM] |
| --- | --- |
| CC(COc1cccc2cc(-c3nc4cc5c(nc4n3C)CCN(C[C@H](N)CF)C5=O)n(CC3CC3)c12)c1cccnc1 (single isomer, unassigned) [Example 45a] | ≤ 10 |
| CC(COc1cccc2cc(-c3nc4cc5c(nc4n3C)CCN(C[C@H](N)CF)C5=O)n(CC3CC3)c12)c1cccnc1 (single isomer, unassigned) [Example 45b] | ≤ 10 |
| Cn1c(-c2cc3cccc(OCC(O)c4cnco4)c3n2CC2CC2)nc2cc3c(nc21)CCN(C[C@H](N)CF)C3=O (single isomer, unassigned) [Example 61a] | 101 to 500 |
| Cn1c(-c2cc3cccc(OCC(O)c4cnco4)c3n2CC2CC2)nc2cc3c(nc21)CCN(C[C@H](N)CF)C3=O (single isomer, unassigned) [Example 61b] | 101 to 500 |
| CC(C(F)Oc1cccc2cc(-c3nc4cc5c(nc4n3C)CCN(C[C@H](N)CF)C5=O)n(CC3CC3)c12)n1ccnc1 (single isomer, unassigned) [Example 78a] | 11 to 100 |
| CC(C(F)Oc1cccc2cc(-c3nc4cc5c(nc4n3C)CCN(C[C@H](N)CF)C5=O)n(CC3CC3)c12)n1ccnc1 (single isomer, unassigned) [Example 78b] | ≤ 10 |
| CC(C(F)Oc1cccc2cc(-c3nc4cc5c(nc4n3C)CCN(C[C@H](N)CF)C5=O)n(CC3CC3)c12)n1ccnc1 (single isomer, unassigned) [Example 78c] | 11 to 100 |
| CC(C(F)Oc1cccc2cc(-c3nc4cc5c(nc4n3C)CCN(C[C@H](N)CF)C5=O)n(CC3CC3)c12)n1ccnc1 (single isomer, unassigned) [Example 78d] | 11 to 100 |
| Cn1c(-c2cc3cccc(OCC(F)n4ccnc4)c3n2CC2CC2)nc2cc3c(nc21)CCN(C[C@H](N)CF)C3=O (single isomer, unassigned) [Example 79a] | 11 to 100 |
| Cn1c(-c2cc3cccc(OCC(F)n4ccnc4)c3n2CC2CC2)nc2cc3c(nc21)CCN(C[C@H](N)CF)C3=O (single isomer, unassigned) [Example 79b] | 11 to 100 |
| COc1cccc2cc(-c3nc4cc5c(nc4n3C)CCN(C[C@H](N)CF)C5=O)n(CC(F)F)c12 [Example 3, (S)-7-(2-amino-3-fluoropropyl)-2-(1-(2,2-difluoroethyl)-7-methoxy-1H-indol-2-yl)-3-methyl-3,5,6,7-tetrahydro-8H-imidazo[4,5-b][1,6]naphthyridin-8-one] | 101 to 500 |
| COc1cccc2cc(-c3nc4cc5c(nc4n3C)CCN(C[C@H](N)CF)C5=O)n(CC3CC3(F)F)c12 (stereo partly drawn) [Example 4, 7-((S)-2-amino-3-fluoropropyl)-2-(1-((2,2-difluorocyclopropyl)methyl)-7-methoxy-1H-indol-2-yl)-3-methyl-3,5,6,7-tetrahydro-8H-imidazo[4,5-b][1,6]naphthyridin-8-one] | 101 to 500 |
| COc1cccc2cc(-c3nc4cc5c(nc4n3C)CCN(C[C@H](N)CF)C5=O)n(CCOC(F)(F)F)c12 [Example 5, (S)-7-(2-amino-3-fluoropropyl)-2-(7-methoxy-1-(2-(trifluoromethoxy)ethyl)-1H-indol-2-yl)-3-methyl-3,5,6,7-tetrahydro-8H-imidazo[4,5-b][1,6]naphthyridin-8-one] | 101 to 500 |
| COc1cccc2cc(-c3nc4cc5c(nc4n3C)CCN(C[C@H](N)CF)C5=O)n(CCOC(F)F)c12 [Example 6, (S)-7-(2-amino-3-fluoropropyl)-2-(1-(2-(difluoromethoxy)ethyl)-7-methoxy-1H-indol-2-yl)-3-methyl-3,5,6,7-tetrahydro-8H-imidazo[4,5-b][1,6]naphthyridin-8-one] | 101 to 500 |
| COc1nccc2cc(-c3nc4cc5c(nc4n3C)CCN(C[C@H](N)CF)C5=O)n(CC(F)(F)F)c12 [Example 21, (S)-7-(2-amino-3-fluoropropyl)-2-(7-methoxy-1-(2,2,2-trifluoroethyl)-1H-pyrrolo[2,3-c]pyridin-2-yl)-3-methyl-3,5,6,7-tetrahydro-8H-imidazo[4,5-b][1,6]naphthyridin-8-one] | > 1000 |
| COc1cccc2cc(-c3nc4cc5c(nc4n3C)CCN(C[C@@H](C)N)C5=O)n(Cc3ncco3)c12 [Example 25, (R)-7-(2-aminopropyl)-2-(7-methoxy-1-(oxazol-2-ylmethyl)-1H-indol-2-yI)-3-methyl-3,5,6,7-tetrahydro-8H-imidazo[4,5-b][1,6]naphthyridin-8-one] | 101 to 500 |
| COc1cccc2cc(-c3nc4cc5c(nc4n3C)CCN(C[C@H]3COCCN3)C5=O)n(CCOC(F)F)c12 [Example 28, (S)-2-(1-(2-(difluoromethoxy)ethyl)-7-methoxy-1H-indol-2-yl)-3-methyl-7-(morpholin-3-ylmethyl)-3,5,6,7-tetrahydro-8H-imidazo[4,5-b][1,6]naphthyridin-8-one] | 501 to 1000 |
| CC(=O)N1CCC(c2cccc3cc(-c4nc5cc6c(nc5n4C)CCN(C[C@H](N)CF)C6=O)n(CC4CC4)c23)CC1 [Example 29, (S)-2-(7-(1-acetylpiperidin-4-yl)-1-(cyclopropylmethyl)-1H-indol-2-yl)-7-(2-amino-3-fluoropropyl)-3-methyl-3,5,6,7-tetrahydro-8H-imidazo[4,5-b][1,6]naphthyridin-8-one] | 101 to 500 |
| CO[C@H](C)C(=O)N1CCC(c2cccc3cc(-c4nc5cc6c(nc5n4C)CCN(C[C@H](N)CF)C6=O)n(CC4CC4)c23)CC1 [Example 31, 7-((S)-2-amino-3-fluoropropyl)-2-(1-(cyclopropylmethyl)-7-(1-((R)-2-methoxypropanoyl)piperidin-4-yl)-1H-indol-2-yl)-3-methyl-3,5,6,7-tetrahydro-8H-imidazo[4,5-b][1,6]naphthyridin-8-one] | 11 to 100 |
| C[C@H](O)C(=O)N1CCC(c2cccc3cc(-c4nc5cc6c(nc5n4C)CCN(C[C@H](N)CF)C6=O)n(CC4CC4)c23)CC1 [Example 32, 7-((S)-2-amino-3-fluoropropyl)-2-(1-(cyclopropylmethyl)-7-(1-((S)-2-hydroxypropanoyl)piperidin-4-yl)-1H-indol-2-yl)-3-methyl-3,5,6,7-tetrahydro-8H-imidazo[4,5-b][1,6]naphthyridin-8-one] | 101 to 500 |
| COC(=O)N1CC[C@@H](Oc2cccc3cc(-c4nc5cc6c(nc5n4C)CCN(C[C@H](N)CF)C6=O)n(CC4CC4)c23)C1 [Example 40, methyl (R)-3-((2-(7-((S)-2-amino-3-fluoropropyl)-3-methyl-8-oxo-5,6,7,8-tetrahydro-3H-imidazo[4,5-b][1,6]naphthyridin-2-yl)-1-(cyclopropylmethyl)-1H-indol-7-yl)oxy)pyrrolidine-1-carboxylate] | 11 to 100 |
| Cn1c(-c2cc3cccc(OCCc4cn[nH]c4)c3n2CC2CC2)nc2cc3c(nc21)CCN(C[C@H](N)CF)C3=O [Example 50, (S)-2-(7-(2-(1H-pyrazol-4-yl)ethoxy)-1-(cyclopropylmethyl)-1H-indol-2-yl)-7-(2-amino-3-fluoropropyl)-3-methyl-3,5,6,7-tetrahydro-8H-imidazo[4,5-b][1,6]naphthyridin-8-one] | ≤ 10 |

Other lines, results leading:

| IC50 [nM] | Compound |
| --- | --- |
| ≤ 10 | Cn1c(-c2cc3cccc(OC(F)Cn4cnc(F)c4)c3n2CC2CC2)nc2cc3c(nc21)CCN(C[C@H](N)CF)C3=O (single isomer, unassigned) [Example 73a] |
| ≤ 10 | Cn1c(-c2cc3cccc(OC(F)Cn4cnc(F)c4)c3n2CC2CC2)nc2cc3c(nc21)CCN(C[C@H](N)CF)C3=O (single isomer, unassigned) [Example 73b] |
| 11 to 100 | Cn1c(-c2cc3cccc(OC(C)(F)Cn4ccnc4)c3n2CC2CC2)nc2cc3c(nc21)CCN(C[C@H](N)CF)C3=O (single isomer, unassigned) [Example 76a] |
| 11 to 100 | Cn1c(-c2cc3cccc(OC(C)(F)Cn4ccnc4)c3n2CC2CC2)nc2cc3c(nc21)CCN(C[C@H](N)CF)C3=O (single isomer, unassigned) [Example 76b] |
| 11 to 100 | COCCn1c(-c2nc3cc4c(nc3n2C)CCN(C[C@H](N)CF)C4=O)cc2cccc(OC(F)Cn3ccnc3)c21 (single isomer, unassigned) [Example 77a] |
| 11 to 100 | COCCn1c(-c2nc3cc4c(nc3n2C)CCN(C[C@H](N)CF)C4=O)cc2cccc(OC(F)Cn3ccnc3)c21 (single isomer, unassigned) [Example 77b] |

— patent US20250353848A1, “HETEROCYCLIC PAD4 INHIBITORS” (Celgene Corporation, priority 2022, published 2025)
